From patent publication US8895745B2, “Bicyclic heterocyclic compounds as FGFR inhibitors” (Astex Therapeutics Limited, priority 2006, dated 2014) come the findings set out here.

The structures appear in SMILES notation. Structures can show the parent of a compound that is named as a salt. Some results are limits rather than exact numbers.

For one assay, the system named is LP-1 cell line. The assay is described as follows: Cell-based pERK ELISA method, LP-1 cells. The note with it: Homo sapiens, LP-1, read-out: IC50 less than 1 μM or at least 50% inhibition at a concentration of 1 μM, LP-1 pERK ELISA. (In general: ELISA stands for enzyme-linked immunosorbent assay.)
Protocol: LP-1 or JIM-1 multiple myeloma cells were seeded in 96 well plates at 1×10^6 cells/ml in 200 ul per well in serum free media. […] Cells were incubated for 16 h at 37° C. prior to the addition of a test compound for 30 minutes. Test compounds were administered at a 0.1% final DMSO concentration. […] ELISA plates and standards were prepared according o the standard DuoSet protocols and the relative amounts of pERK to total ERK in each sample calculated according to the standard curve.
In particular, compounds of the invention were tested against the LP-1 cell line (DSMZ no.: ACC 41) derived from human multiple myeloma.
`CC(C)Oc1cc(NC(=O)NCC(F)(F)F)cc(-c2cnc3cc(-c4ccc(F)cc4)ccn23)c1` [Example 238, 1-{3-[7-(4-Fluoro-phenyl)-imidazo[1,2-a]pyridin-3-yl]-5-isopropoxy-phenyl}-3-(2,2,2-trifluoro-ethyl)-urea]: the IC50 is less than 1 µM. For the compound `CS(=O)(=O)NCc1cccc(-c2ccn3c(-c4cccc(NC(=O)NCC(F)(F)F)c4)cnc3c2)c1` [Example 239, N-[3-(3-{3-[3-(2,2,2-Trifluoro-ethyl)-ureido]-phenyl}-imidazo[1,2-a]pyridin-7-yl)-benzyl]-methane-sulfonamide], the IC50 was less than 1 µM. Same read-out and setting: the value for `O=C(NCC(F)(F)F)Nc1cccc(-c2cnc3cc(-c4cnco4)ccn23)c1` [Example 240, 1-[3-(7-Oxazol-5-yl-imidazo[1,2-a]pyridin-3-yl)-phenyl]-3-(2,2,2-trifluoro-ethyl)-urea] was less than 1 µM; that for `O=C(NCC(F)(F)F)Nc1cccc(-c2cnc3cc(-c4cccc(NC5CCOCC5)c4)ccn23)c1` [Example 244, 1-(3-{7-[3-(Tetrahydro-pyran-4-ylamino)-phenyl]-imidazo[1,2-a]pyridin-3-yl}-phenyl)-3-(2,2,2-trifluoro-ethyl)-urea] was less than 1 µM; that for `CN1CCN(c2ccc(-c3ccn4c(-c5cccc(NC(=O)NCC(F)(F)F)c5)cnc4c3)cc2)CC1` [Example 245, 1-(3-{7-[4-(4-Methyl-piperazin-1-yl)-phenyl]-imidazo[1,2-a]pyridin-3-yl}-phenyl)-3-(2,2,2-trifluoro-ethyl)-urea Acetic acid] was less than 1 µM. On the same count and under the same terms, as for `CC(NC(=O)Nc1cccc(-c2cnc3cc(-c4ccc(F)cc4)ccn23)c1)C(F)(F)F` (stereo not drawn) [Example 246, 1-{3-[7-(4-Fluoro-phenyl)-imidazo[1,2-a]pyridin-3-yl]-phenyl}-3-(2,2,2-trifluoro-1-methyl-ethyl)-urea], the figure is less than 1 µM; as for `CNC(=O)c1cccc(-c2ccn3c(-c4cccc(NC(=O)NCC(F)(F)F)c4)cnc3c2)c1` [Example 247, N-Methyl-3-(3-{3-[3-(2,2,2-trifluoro-ethyl)-ureido]-phenyl}-imidazo[1,2-a]pyridin-7-yl)-benzemide Formate], less than 1 µM; as for `NS(=O)(=O)c1cccc(-c2ccn3c(-c4cccc(NC(=O)NCC(F)(F)F)c4)cnc3c2)c1` [Example 249, 3-(3-{3-[3-(2,2,2-Trifluoro-ethyl)-ureido]-phenyl}-imidazo[1,2-a]pyridin-7-yl)-benzene-sulfonamide formate], less than 1 µM. Still for that read-out and setting: as for `O=C(NCC(F)(F)F)Nc1cccc(-c2cnc3cc(-c4cccc(C(=O)N5CCNCC5)c4)ccn23)c1` [Example 250, 1-(3-{7-[3-(Piperazine-1-carbonyl)-phenyl]-imidazo[1,2-a]pyridin-3-yl}-phenyl)-3-(2,2,2-trifluoro-ethyl)-urea hydrochloride], the figure is less than 1 µM.

For the compound `CS(=O)(=O)c1cccc(-c2ccn3c(-c4cccc(NC(=O)NCC(F)(F)F)c4)cnc3c2)c1` [Example 251, 1-{3-[7-(3-Methane-sulfonyl-phenyl)-imidazo[1,2-a]pyridin-3-yl]-phenyl}-3-(2,2,2-trifluoro-ethyl)-urea formate], the IC50 is less than 1 µM. Consider `O=C(NCC(F)(F)F)Nc1ccc(F)c(-c2cnc3cc(Cl)ccn23)c1` [Example 252, 1-[3-(7-Chloro-imidazo[1,2-a]pyridin-3-yl)-4-fluoro-phenyl]-3-(2,2,2-trifluoro-ethyl)-urea], for which the IC50 was less than 1 µM.

Consider `O=C(NCC(F)(F)F)Nc1ccc(F)c(-c2cnc3cc(-c4ccc(F)cc4)ccn23)c1` [Example 253, 1-{4-Fluoro-3-[7-(4-fluoro-phenyl)-imidazo[1,2-a]pyridin-3-yl]-phenyl}-3-(2,2,2-trifluoro-ethyl)-urea], for which the IC50 is less than 1 µM. With `O=C(NCC(F)(F)F)Nc1cccc(-c2cnc3cc(-c4cc(F)cc(F)c4)ccn23)c1` [Example 254, 1-{3-[7-(3,5-Difluoro-phenyl)-imidazo[1,2-a]pyridin-3-yl]-phenyl}-3-(2,2,2-trifluoro-ethyl)-urea], the IC50 was less than 1 µM. With `CCCn1cc(-c2ccn3c(-c4cccc(NC(=O)NCC(F)(F)F)c4)cnc3c2)cn1` [Example 256, 1-{3-[7-(1-Propyl-1H-pyrazol-4-yl)-imidazo[1,2-a]pyridin-3-yl]-phenyl}-3-(2,2,2-trifluoro-ethyl)-urea formate], the IC50 is less than 1 µM. Same read-out and setting: as for `O=C(NCC(F)(F)F)Nc1cc(CO)cc(-c2cnc3cc(-c4ccc(F)cc4)ccn23)c1` [Example 258, 1-{3-[7-(4-Fluoro-phenyl)-imidazo[1,2-a]pyridin-3-yl]-5-hydroxymethyl-phenyl}-3-(2,2,2-trifluoro-ethyl)-urea], the figure is less than 1 µM; as for `CCc1nnc(-c2ccn3c(-c4cccc(NC(=O)NCC(F)(F)F)c4)cnc3c2)s1` [Example 260, 1-{3-[7-(5-Ethyl-[1,3,4]thiadiazol-2-yl)-imidazo[1,2-a]pyridin-3-yl]-phenyl}-3-(2,2,2-trifluoro-ethyl)-urea], less than 1 µM. Turning to `CCNC(=O)c1cccc(-c2ccn3c(-c4cccc(NC(=O)NCC(F)(F)F)c4)cnc3c2)c1` [Example 261, N-Ethyl-3-(3-{3-[3-(2,2,2-trifluoro-ethyl)-ureido]-phenyl}-imidazo[1,2-a]pyridin-7-yl)-benzamide Formate], the IC50 was less than 1 µM. The same measure, in the same setting: as for `CN(C)S(=O)(=O)n1cc(-c2ccn3c(-c4cccc(NC(=O)NCC(F)(F)F)c4)cnc3c2)cn1` [Example 262, 4-(3-{3-[3-(2,2,2-Trifluoro-ethyl)-ureido]-phenyl}-imidazo[1,2-a]pyridin-7-yl)-pyrazole-1-sulfonic acid dimethylamide], the figure is less than 1 µM. The same measure, in the same setting: as for `COCCNC(=O)c1cccc(-c2ccn3c(-c4cccc(NC(=O)NCC(F)(F)F)c4)cnc3c2)c1` [Example 263, N-(2-Methoxy-ethyl)-3-(3-{3-[3-(2,2,2-trifluoro-ethyl)-ureido]-phenyl}-imidazo[1,2-a]pyridin-7-yl)-benzamide], the figure is less than 1 µM; as for `O=C(NCC(F)(F)F)Nc1cccc(-c2cnc3cc(-c4cccc(C(=O)N5CCC5)c4)ccn23)c1` [Example 264, 1-(3-{7-[3- (Azetidine 1-carbonyl)-phenyl]-imidazo[1,2-a]pyridin-3-yl}-phenyl)-3-(2,2,2-trifluoro-ethyl)-urea], less than 1 µM.

As for `CCNC(=O)Nc1cc(-c2cnc3cc(-c4ccc(F)cc4)ccn23)ccc1F` [Example 266, 1-Ethyl-3-{2-fluoro-5-[7-(4-fluoro-phenyl)-imidazo[1,2-a]pyridin-3-yl]-phenyl}-urea], the IC50 is less than 1 µM.

Take `CC(C)NC(=O)c1cccc(-c2ccn3c(-c4cccc(NC(=O)NCC(F)(F)F)c4)cnc3c2)c1` [Example 267, N-Isopropyl-3-(3-{3-[3-(2,2,2-trifluoro-ethyl)-ureido]-phenyl}-imidazo[1,2-a]pyridin-7-yl)-benzamide]: the IC50 was less than 1 µM.

Consider `O=C(NCC(F)(F)F)Nc1cccc(-c2cnc3cc(-c4ccc(F)cc4F)ccn23)c1` [Example 269, 1-{3-[7-(2,4-Difluoro-phenyl)-imidazo[1,2-a]pyridin-3-yl]-phenyl}-3-(2,2,2-trifluoro-ethyl)-urea], for which the IC50 is less than 1 µM. The same measure, in the same setting: as for `Cc1ccc(-c2ccn3c(-c4cccc(NC(=O)NCC(F)(F)F)c4)cnc3c2)s1` [Example 270, 1-{3-[7-(5-Methyl-thiophen-2-yl)-imidazo[1,2-a]pyridin-3-yl]-phenyl}-3-(2,2,2-trifluoro-ethyl)-urea formate], the figure is less than 1 µM; as for `COc1ccc(-c2ccn3c(-c4cccc(NC(=O)NCC(F)(F)F)c4)cnc3c2)cc1` [Example 271, 1-{3-[7-(4-Methoxy-phenyl)-imidazo[1,2-a]pyridin-3-yl]-phenyl}-3-(2,2,2-trifluoro-ethyl)-urea], less than 1 µM. On the same count and under the same terms, as for `O=C(NCC(F)(F)F)Nc1cccc(-c2cnc3cc(-c4ccc(Cl)cc4)ccn23)c1` [Example 273, 1-{3-[7-(4-Chloro-phenyl)-imidazo[1,2-a]pyridin-3-yl]-phenyl}-3-(2,2,2-trifluoro-ethyl)-urea], the figure is less than 1 µM. Same read-out and setting: the value for `O=C(NCC(F)(F)F)Nc1cccc(-c2cnc3cc(-c4cccc(Cl)c4)ccn23)c1` [Example 278] was less than 1 µM. For the compound `COc1cccc(-c2ccn3c(-c4cccc(NC(=O)NCC(F)(F)F)c4)cnc3c2)c1` [Example 279, 1-{3-[7-(3-Methoxy-phenyl)-imidazo[1,2-a]pyridin-3-yl]-phenyl}-3-(2,2,2-trifluoro-ethyl)-urea], the IC50 was less than 1 µM. Still for that read-out and setting: as for `O=C(NCC(F)(F)F)Nc1cccc(-c2cnc3cc(-c4ccc(Cl)c(F)c4)ccn23)c1` [Example 280, 1-{3-[7-(4-Chloro-3-fluoro-phenyl)-imidazo[1,2-a]pyridin-3-yl]-phenyl}-3-(2,2,2-trifluoro-ethyl)-urea], the figure is less than 1 µM; as for `O=C(NCC(F)(F)F)Nc1cccc(-c2cnc3cc(-c4cccc(C(=O)N5CCCNCC5)c4)ccn23)c1` [Example 283, 1-(3-{7-[3-([1,4] Diazepane-1-carbonyl)-phenyl]-imidazo[1,2-a]pyridin-3-yl}-phenyl)-3-(2,2,2-trifluoro-ethyl)-urea Hydrochloride], less than 1 µM; as for `O=C(NCC(F)(F)F)Nc1cccc(-c2cnc3cc(-c4ccc(F)c(Cl)c4)ccn23)c1` [Example 284, 1-{3-[7-(3-Chloro-4-fluoro-phenyl)-imidazo[1,2-a]pyridin-3-yl]-phenyl}-3-(2,2,2-trifluoro-ethyl)-urea], less than 1 µM. For `O=C(NCC(F)(F)F)Nc1cccc(-c2cnc3cc(-c4ccc(C5CNCCN5)cc4)ccn23)c1` (stereo not drawn) [Example 296, 1-{3-[7-(4-Piperazin-2-yl-phenyl)-imidazo[1,2-a]pyridin-3-yl]-phenyl}-3-(2,2,2-trifluoro-ethyl)-urea hydrochloride], the IC50 is less than 1 µM.

Staying with this assay, now noted: Homo sapiens, LP-1, read-out: LP-1 pERK ELISA (μM).
Regarding `Cc1nnc(-c2ccn3c(-c4cccc(NC(=O)NCC(F)(F)F)c4)cnc3c2)s1` [Example 310, 1-{3-[7-(5-Methyl-[1,3,4]-thiadiazol-2-yl)-imidazo[1,2-a]pyridin-3-yl]-phenyl}-3-(2,2,2-trifluoro-ethyl)-urea], the IC50 stood at 0.0042 µM.
